Consider 24 compounds from US20260176276A1, “COMPOUND FOR REGULATING AND CONTROLLING ACTIVITY OF 15-PGDH AND PREPARATION METHOD THEREFOR” (SCINNOHUB PHARMACEUTICAL CO., LTD, priority 2022, published 2026).

For orientation: IC50 means the concentration needed to halve the response being measured.

A value given as a limit tells only on which side of the number the result lay.

The assay addresses T1, 15-PGDH (Homo sapiens, UniProt P15428).
T1 construct: purchased Sino Biological Inc. 11205-H08E
T1 sequence (P15428 1-266): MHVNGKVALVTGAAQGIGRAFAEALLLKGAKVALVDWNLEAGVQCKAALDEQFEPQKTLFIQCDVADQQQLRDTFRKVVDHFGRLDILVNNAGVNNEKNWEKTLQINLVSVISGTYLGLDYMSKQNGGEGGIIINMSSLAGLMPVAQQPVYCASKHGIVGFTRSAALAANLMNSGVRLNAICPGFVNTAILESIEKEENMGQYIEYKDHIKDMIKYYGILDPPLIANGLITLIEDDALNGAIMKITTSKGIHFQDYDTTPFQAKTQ
Briefly: Detection of activity of 15-PGDH kinase (enzyme inhibition, fluorescence slope). The assay is classed as biochemical. Particulars: inhibitory activity against 15-PGDH enzyme; substrates PGF2α and β-NAD; fluorescence Ex/Em=340/450. The method, then:
[table] • a. A solution of pH 7.5 containing 50 mM Tris-HCl, 0.01% Tween 20 was prepared with ultrapure water as a reaction buffer; • b. A 10 mM mother liquor of the compound to be tested was prepared with DMSO, and then the reaction buffer was used to dilute the mother liquor of the compound to be tested to obtain solution 1 of the compound to be tested at a concentration of 4000 nM, and then the solution 1 of the compound to be tested was serially diluted into solutions 2-10 of the compound to be tested at 9 concentrations with a gradient difference of three-fold. 5 μL of each of solutions 1-10 of the compound to be tested was taken and added into a 384-well plate as test wells; • c. 5 μL of the reaction buffer was added to the 384-well plate as positive control and blank control wells; • d. The reaction buffer was used to prepare a 15-PGDH protein solution at a concentration of 5 ng/μL, 5 μL of the 15-PGDH protein solution was taken and added to the test wells and positive control wells, and 5 μL of the reaction buffer was added to the blank control wells at the same time, then the plate was centrifuged at 2000 rpm for 30 seconds; • e. The reaction buffer was used to prepare 5 mM R-NAD and 2 mM PGF2α, respectively, which were mixed at 1:1 by volume to obtain a substrate mixture, 10 μL of the substrate mixture was taken and added to the test wells, positive control wells and blank control wells to start the reaction; • f. The fluorescence signal value (Ex/Em=340/450) of each well was detected continuously by using a multifunctional microplate reader. • a) Continuous fluorescence signal values were analyzed by using the “kinetic calculations-slope calculation method” in the PHERAstar Data analysis software to obtain the slope of each test well; • b) The inhibition rate % was calculated by using the following formula: [formula] • c) Calculation of IC50 and plotting of inhibition rate-dose curves: IC50 values were calculated by fitting compound concentrations and corresponding inhibition rates with nonlinear regression (dose response-variable slope) via using GraphPad Prism 6.0. The formula is shown below: [formula] wherein X is a log value of a concentration of the compound, and Y is inhibition rate %.
Consider `CCCC[S+]([O-])c1sc2nc(-c3ccc4c(c3)CN(C)C4=O)n3ccnc3c2c1N` (stereo not drawn) [Example 21], for which the IC50 was 1.5 to 4 nM.

Regarding `CCCC[S+]([O-])c1sc2nc(-c3ccccc3)n3c(C)cnc3c2c1N` (stereo not drawn) [Example 19], the IC50 is 1.5 to 4 nM.

`CCCC[S+]([O-])c1sc2nc(-c3ccccc3)n3c(C)nnc3c2c1N` (stereo not drawn) [Example 4, 8-(butylsulfinyl)-3-methyl-5-phenylthieno[3,2-e][1,2,4]triazolo[4,3-c]pyrimidin-9-amine] yielded an IC50 of 4 to 10 nM.

`CCCC[S+]([O-])c1sc2nc(-c3nccs3)n3ccnc3c2c1N` (stereo not drawn) [Example 11] displayed an IC50 of 1.5 to 4 nM.

Compound `Nc1c([S+]([O-])C2COC2)sc2nc(-c3ccccc3)n3ccnc3c12` (stereo not drawn) [Example 9] showed a concentration for half-maximal inhibition (IC50) of 10 to 15 nM.

For `CCCC[S+]([O-])c1sc2nc(-c3ccccc3)n3ccnc3c2c1C` (stereo not drawn) [Example 20], the IC50 lay in the range of 15 to 30 nM.

The compound `CCC(C)C[S+]([O-])c1sc2nc(-c3ccccc3)n3ccnc3c2c1N` (stereo not drawn) [Example 24] registered an IC50 of 4 to 10 nM.

`CC(C)(C)[S+]([O-])c1sc2nc(-c3ccccc3)n3ccnc3c2c1N` (stereo not drawn) [Example 26] came in with an IC50 of 10 to 15 nM.

The compound `CCCC[S+]([O-])c1sc2nc(-c3ccccc3)n3cc(C(F)(F)F)nc3c2c1N` (stereo not drawn) [Example 6] displayed an IC50 of 4 to 10 nM.

`CCCC[S+]([O-])c1sc2nc(-c3cnccn3)n3ccnc3c2c1N` (stereo not drawn) [Example 10] showed an IC50 of 4 to 10 nM.

In the case of `CCCC[S+]([O-])c1sc2nc(-c3ncccn3)n3ccnc3c2c1N` (stereo not drawn) [Example 12], the IC50 fell in the range of 1.5 to 4 nM.

The compound `CCCC[S+]([O-])c1sc2nc(-c3ccccc3)n3ccnc3c2c1N` (stereo not drawn) [Example 1, 8-(butylsulfinyl)-5-phenylimidazo[1,2-c]thieno[3,2-e]pyrimidin-9-amine] registered an IC50 of 4 to 10 nM.

`CCCC[S+]([O-])c1sc2nc(-c3ccc(C(=O)O)cc3)n3ccnc3c2c1N` (stereo not drawn) [Example 22] had an IC50 of 1.5 to 4 nM.

On to `CCCC[S+]([O-])c1sc2nc(-c3ccncc3)n3ccnc3c2c1N` (stereo not drawn) [Example 16], for which the IC50 fell in the range of 1.5 to 4 nM.

Take `CCCC[S+]([O-])c1sc2nc(-c3ccccc3)n3cnnc3c2c1N` (stereo not drawn) [Example 18]: the IC50 was in the range of 10 to 15 nM.

In the case of `Nc1c([S+]([O-])C2CCCC2)sc2nc(-c3ccccc3)n3ccnc3c12` (stereo not drawn) [Example 7], the concentration for half-maximal inhibition (IC50) lay in the range of 4 to 10 nM.

In turn, `CCCC[S+]([O-])c1sc2nc(-c3ccc(N4CCOCC4)nc3)n3ccnc3c2c1N` (stereo not drawn) [Example 17] returned an IC50 of 4 to 10 nM.

Regarding `CCCC[S+]([O-])c1sc2nc(-c3cccnc3)n3ccnc3c2c1N` (stereo not drawn) [Example 13], the IC50 is < 1.5 nM.

Consider `CC(C)C[S+]([O-])c1sc2nc(-c3ccccc3)n3ccnc3c2c1N` (stereo not drawn) [Example 25], for which the IC50 is > 30 nM.

The compound `Nc1c([S+]([O-])Cc2ccccc2)sc2nc(-c3ccccc3)n3ccnc3c12` (stereo not drawn) [Example 23] had an IC50 of 10 to 15 nM.

For the compound `CCCC[S+]([O-])c1sc2nc(-c3ccccc3)n3cc(C)nc3c2c1N` (stereo not drawn) [Example 5], the IC50 was < 1.5 nM.

Turning to `CCCC[S+]([O-])c1sc2nc(-c3cnn(C)c3)n3ccnc3c2c1N` (stereo not drawn) [Example 15], the IC50 was in the range of 1.5 to 4 nM.

In the case of `CCCC[S+]([O-])c1sc2nc(-c3ccsc3)n3ccnc3c2c1N` (stereo not drawn) [Example 14], the concentration for half-maximal inhibition (IC50) fell in the range of 1.5 to 4 nM.

`Nc1c([S+]([O-])C2CCCCC2)sc2nc(-c3ccccc3)n3ccnc3c12` (stereo not drawn) [Example 8]: the IC50 lay in the range of 4 to 10 nM.
